# Data as given in patent publication US12115193B2, “Methods of using RARγ agonists for cancer treatment” (Io Therapeutics, Inc., priority 2021, dated 2024).
# How the values were obtained:
# EMT6 cells [1] = assay: EMT6 syngeneic mouse model of triple negative breast cancer (Example 3); format: in vivo; settings: 21 daily oral doses 10 mg/kg; at the end of the study
# Description: The RARγ agonists tazarotenic acid and GA2E were evaluated in the EMT6 syngeneic mouse model of breast cancer. 5×10^5 EMT6 cells were injected into the mammary fat pad of immunocompetent female Balb/c mice. When the tumors reached an average volume of 50-150 mm^3, mice were matched by tumor size into control or treatment groups (n=10-11).
# The mice were treated with 21 daily oral doses 10 mg/kg of 1 mg/ml tazarotenic acid or GA2E, or vehicle control, starting on Day 0. Tumor volume was measured, and the mice weighed, on days 0, 1, 3, 6, 8, 10, 13, 15, 17, 20, and 21.
# TIL in EMT6 tumors = assay: Flow cytometry of excised EMT6 tumors (Example 4); format: in vivo, mouse
# Text: At the end of the study of Example 3, the tumors were excised, the cells disaggregated and dispersed without use of proteases, stained with various agents, and subjected to flow cytometry. FIG. 5A-B present the results of the flow cytometry both as a percentage of cells and as the number of cells per tumor. […] Of these live cells, a substantial proportion were leukocytes (FIG. 5A, “CD45” panels). […] The majority of the T cells were CD4+(FIG. 5A, “CD4” panels), expected to be predominantly helper cells. Of the CD4^+ cells, only small proportions were T memory cells (expected to be predominantly TH1 memory cells) based on intracellular staining for IFNγ (FIG. 5B, “TH IFGγ” panels), TH17 cells based in intracellular staining for IL-17 (FIG. 5B, “TH IL17” panels), or Treg cell based on staining for CD25 and FoxP3 (FIG. 5B, “Treg” panels). About 25-30% of the T cells were CD8^+ (FIG. 5B, “CD8 T” panels), expected to be predominantly cytotoxic cells.
# PBMC = assay: CMV recall antigen-stimulated PBMC: IFNγ production and CFSE proliferation; format: cell-based; settings: four days, vs vehicle control; for IFNγ production: 0.1 to 1000 nM; for Proliferation of CD8+ cells (CFSE dilution): increase small
# Description: Peripheral blood mononuclear cells (PBMC) from a cytomegalovirus (CMV)-positive donor were labeled with carboxyfluorescein succinimidyl ester (CFSE) and stimulated with CMV recall antigens at […]. The PBMC were then treated with one of three difference RARγ selective agonists or vehicle (DMSO) control and incubated at 37° C., 5% CO2 for four days. Culture supernatant was harvested and assayed for IFNγ production and the PBMC evaluated for proliferation by flow cytometry for CFSE dilution.
# CFSE is a fluorescent reactive cell membrane permeable dye. After it is taken up, CFSE covalently modifies proteins and is retained in cells for long periods of time. The CFSE-modified proteins are generally evenly divided between daughter cells at each division so that fluorescent intensity of the cells falls by have at each division. Thus diminution of the dye's fluorescent signal can be used as a measure of proliferation.
# RARγ = target: T1, RARγ (Homo sapiens, UniProt P13631); assay: RARγ transactivation assay (luciferase reporter); format: cell-based
# T1 construct: expression plasmids encoding the full-length receptors RARα and RARγ; expressed in transfected cells
# T1 sequence (P13631 1-454): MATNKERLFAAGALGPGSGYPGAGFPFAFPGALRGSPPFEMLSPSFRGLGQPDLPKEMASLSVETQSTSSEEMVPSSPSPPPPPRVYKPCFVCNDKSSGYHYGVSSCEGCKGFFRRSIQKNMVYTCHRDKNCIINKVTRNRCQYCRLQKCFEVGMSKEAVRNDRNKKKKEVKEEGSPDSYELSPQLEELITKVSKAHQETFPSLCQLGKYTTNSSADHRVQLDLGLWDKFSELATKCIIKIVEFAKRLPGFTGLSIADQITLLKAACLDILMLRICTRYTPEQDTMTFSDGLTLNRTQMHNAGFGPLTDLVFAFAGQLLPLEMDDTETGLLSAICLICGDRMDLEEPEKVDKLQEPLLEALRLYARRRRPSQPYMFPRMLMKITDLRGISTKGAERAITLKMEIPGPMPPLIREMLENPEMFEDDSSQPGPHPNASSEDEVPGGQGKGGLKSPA
# Description: Transactivation assays were conducted to test the specificity of binding activity of GA1E and GA2E for RARα and RARγ. Retinoic acid receptor transactivation activity and binding efficiencies were determined essentially as described in U.S. Pat. Nos. 5,298,429 and 5,071,773, incorporated by reference herein for all they teach regarding transactivation assays. Transactivation assays employed expression plasmids encoding the full-length receptors RARα and RARγ. Reporter plasmids containing the herpes virus thymidine kinase promoter and the appropriate retinoic acid receptor response element (RAREs) were positioned upstream of an open coding region encoding firefly luciferase.
# The ability of GA1E and GA2E to activate RARα and RARγ in a transactivation assay was tested over a concentration range of 0.5 to 625 nM (GA2E) or 0.05 to 3320 nM (GA1E). GA1E induced less than 10% transactivation for RARα across the whole concentration range, but over 50% transactivation for RARγ at concentrations ≥25 nM and over 70% at concentrations 125 nM (FIG. 3A). GA2E induced more than 85% transactivation at all tested concentrations and less than 10% transactivation of RARα at concentrations of ≤25 nM (FIG. 3B).
# EMT6 cells [2] = assay: EMT6 in vitro culture viability, Cell Titer Glo Assay; format: cell-based, mouse; settings: 5 days; for IC50: Mus musculus, 120 h
# Description: EMT6 cells were cultured in vitro for 5 days the presence of a multiple concentrations of the RARγ agonists GA1E, GA2E, and GA3Ep and viability assessed by the Cell Titer Glo Assay® (Promega).
# [3] = test system: Lewis lung carcinoma (LLC) cells; assay: Lewis lung carcinoma in vitro culture viability, Cell Titer Glo Assay; format: cell-based, mouse; settings: for IC50: Mus musculus, Lewis lung carcinoma
# Description: Lewis lung carcinoma (LLC) cells were cultured in vitro the presence of a multiple concentrations of the RARγ agonists GA1E, GA2E, and GA3Ep and viability assessed by the Cell Titer Glo Assay®.
Structure (SMILES),tumor growth inhibition (EMT6 cells [1]) [%],"T cells (anti-CD3) as mean percentage of the leukocytes in the tumor (TIL in EMT6 tumors; 10 mg/kg oral daily, end of study) [%]","proportion of CD8+ T cells that were memory cells (intracellular IFNγ) (TIL in EMT6 tumors; vs vehicle control, did not achieve statistical significance)",IFNγ production (PBMC),Proliferation of CD8+ cells (CFSE dilution) (PBMC),transactivation for RARγ (RARγ; at concentrations 125 nM),transactivation for RARγ (RARγ; at concentrations ≥25 nM),effect on viability as concentrations exceeded 10 μM (EMT6 cells [2]),effect on viability at concentrations below 1 μM (EMT6 cells [2]),IC50 (EMT6 cells [2]) [µM],effect on viability as concentrations exceeded 10 μM [3],effect on viability at concentrations below 1 μM [3],IC50 [3] [µM]
"CC1(C)CCSc2ccc(C#Cc3ccc(C(=O)O)cn3)cc21 [tazarotenic acid, reference compound]",44,~10,numerically increased,increased IFNγ production substantially,increased,,,,,,,,
"CCc1oc2ccc(C(/C=C/c3ccc(C(=O)O)cc3F)=N/O)cc2c1C(C)(C)C [GA1E, 4-((1E,3E)-3-(3-(tert-butyl)-2-ethyl-benzofuran-5-yl)-3-(hydroxyimino)prop-1-en-1-yl)-3-fluorobenzoic acid]",,,,,,over 70%,over 50%,rapidly became toxic,no effect,52,rapidly became toxic,no effect,96
CC1(C)CCC(C)(C)c2cc(C(/C=C/c3ccc(C(=O)O)cc3)=N/O)ccc21 [GA3Ep],,,,increased IFNγ production substantially,increased,,,rapidly became toxic,no effect,101,rapidly became toxic,no effect,45
